{"source": "PubChem BioAssay AID1981", "about": "(Southern Research Specialized Biocontainment Screening …, 2009)"}
{"test_system": "S. Typhimurium PhoP-promoter GFP reporter counterscreen, fluorescence, 4 h", "assay": "S. Typhimurium GFP fluorescence modified counterscreen for PhoP regulon inhibitor project dose response (AID 1981)", "units": {"IC50": "µM"}}
{"smiles": "COc1c(F)c(F)cc2c(=O)c(C(=O)O)cn(C3CC3)c12", "IC50": 66.3}
{"smiles": "O=C(Nc1ccccc1)Nc1ccc(Cl)c([N+](=O)[O-])c1", "IC50": 39.2}
{"smiles": "O=C(O)CSc1cc(NS(=O)(=O)c2cccc([N+](=O)[O-])c2)c2ccccc2c1O", "IC50": 73.2}
{"smiles": "Oc1c(C(Nc2nc3ccccc3s2)c2ccco2)ccc2cccnc12", "note": "(stereo not drawn)", "IC50": 57}
{"smiles": "O=C(C[n+]1cc(-c2ccc(Cl)cc2)n2c1CCC2)Nc1nc(-c2ccc(F)cc2)cs1", "IC50": 68.2}
{"smiles": "Oc1c(CN2CCOCC2)cc(COCc2ccccc2)c2cccnc12", "IC50": 98.2}
{"smiles": "Nc1nc2ccccc2n1CCOc1ccccc1Cl", "IC50": 104}
{"smiles": "O=C(NC(=S)NNC(=O)c1ccccc1O)c1ccco1", "IC50": 41.8}
{"smiles": "NC1CCN(c2nc3c(cc2F)c(=O)c(C(=O)O)cn3-c2ccc(F)cc2F)C1", "note": "(stereo not drawn)", "IC50": 0.53}
{"smiles": "COc1ccc(C(C[N+](=O)[O-])n2nc(C)cc2C)cc1", "note": "(stereo not drawn)", "IC50": 21.6}
{"smiles": "CCOc1ccc(NC(=O)c2ccc(NC(=O)c3cn4c5c(c(N6CCN(C)CC6)c(F)cc5c3=O)OCC4C)cc2)cc1", "note": "(stereo not drawn)", "IC50": 4.1}
{"smiles": "O=C(N/N=C/c1sc2ccccc2c1O)c1cccc2ccccc12", "IC50": 40}
{"smiles": "Cc1ccccc1Nc1cc(C)c2c(O)cccc2n1", "IC50": 88.2}
{"smiles": "COc1c(N2CCN[C@H](C)C2)c(F)cc2c(=O)c(C(=O)O)cn(C3CC3)c12", "IC50": 0.34}
{"smiles": "COc1ccc(/C=N/Nc2cc(C)nc3ccccc23)cc1", "IC50": 84.8}
{"smiles": "CC(=O)N1CCN(c2cc3c(cc2F)c(=O)c(C(=O)O)cn3C2CC2)CC1", "IC50": 21.6}
{"smiles": "CC(C)CCNCC(O)CON=C1c2ccccc2-c2ccccc21", "note": "(stereo not drawn)", "IC50": 136}
{"smiles": "Oc1cccc(/C=N/NC(=S)Nc2cccnc2)c1O", "IC50": 28.7}
{"smiles": "CC(=O)NC(c1ccc(C)cc1)c1cc([N+](=O)[O-])c2cccnc2c1O", "note": "(stereo not drawn)", "IC50": 37.9}
{"smiles": "Oc1ccccc1NCC(O)Cn1ccc2ccccc21", "note": "(stereo not drawn)", "IC50": 130}
{"smiles": "CCCCCCCCCCCCCCCC[N+](C)(C)C", "IC50": 37.9}
{"smiles": "O=S1(=O)Nc2c(ccc3cccnc23)-c2ccccc21", "IC50": 3.01}
{"smiles": "OCCN1CCN(Cc2cc(Cl)c3cccnc3c2O)CC1", "IC50": 104}
{"smiles": "COc1ccc(C(C[N+](=O)[O-])C2(c3ccc(OC)c(OC)c3)C(=O)c3ccccc3C2=O)cc1", "note": "(stereo not drawn)", "IC50": 23.6}
{"smiles": "CCn1cc(C(=O)O)c(=O)c2cc(F)c(N3CCN(C(=S)NC(=O)c4ccc(F)cc4)CC3)cc21", "IC50": 53.4}
{"smiles": "O=C(N/N=C/c1coc2ccc(Cl)cc2c1=O)c1cc(O)cc(O)c1", "IC50": 137}
{"smiles": "CN1CCN(C(c2ccc(C(F)(F)F)cc2)c2cc(Cl)c3cccnc3c2O)CC1", "note": "(stereo not drawn)", "IC50": 30.2}
{"smiles": "CN1CCN(CCCN2c3ccccc3Sc3ccc(Cl)cc32)CC1", "IC50": 148}
{"smiles": "CCCCOc1ccc(CSC(=N)N)cc1[N+](=O)[O-]", "IC50": 131}
{"smiles": "COC(=O)C(C)NC(=S)N1CCN(c2c(F)cc3c(=O)c(C(=O)O)cn(C4CC4)c3c2OC)CC1C", "note": "(stereo not drawn)", "IC50": 60.6}
{"smiles": "O=C(Nc1ccccc1)Nc1ncc([N+](=O)[O-])s1", "IC50": 53.4}
{"smiles": "Cc1cc(SCC(=O)N/N=C/c2ccc(O)c(O)c2O)c(C)cc1Br", "IC50": 22.8}
{"smiles": "Clc1ccc(CN2CCC(c3nc4ccc(Cl)cc4[nH]3)CC2)cc1", "IC50": 51.7}
{"smiles": "COc1ccc(OCC(O)CNc2ccc(Br)cc2)cc1", "note": "(stereo not drawn)", "IC50": 20}
{"smiles": "CCn1cc(C(=O)O)c(=O)c2cc(F)c(N3CCNCC3)cc21", "IC50": 0.89}
{"smiles": "NC(N)=N/N=C/c1ccc(OCc2ccc(Cl)cc2)cc1", "IC50": 56.5}
{"smiles": "CC(C)COc1ccc(Cc2cnc(N)nc2N)cc1", "IC50": 127}
{"smiles": "O=c1[nH]cc(F)c(=O)[nH]1", "IC50": 4.17}
{"smiles": "CCCCN(CCCC)C(=O)c1cn(CC)c2cc(N3CCN(C)CC3)c(F)cc2c1=O", "IC50": 14.2}
{"smiles": "CCCCCCCOC(=O)C[N+](C)(C)CCOC1CC2CCC1(C)C2(C)C", "note": "(stereo not drawn)", "IC50": 40.6}
{"smiles": "c1ccc(-c2cccc(-c3ccccn3)n2)nc1", "IC50": 16.4}
{"smiles": "O=C1OCC(CO)(CO)N=C1NNc1ccc(Cl)c(Cl)c1", "IC50": 53.3}
{"smiles": "O=C1C=C(N2CCOCC2)c2ccccc2C1=O", "IC50": 69.9}
{"smiles": "CCCCCCCCCCOC(=O)Cn1c(COc2ccc(C)cc2)[n+](C)c2ccccc21", "IC50": 25.8}
{"smiles": "CCOC(=O)N1CCN(C(c2cccnc2)c2ccc3cccnc3c2O)CC1", "note": "(stereo not drawn)", "IC50": 57.1}
{"smiles": "COc1ccc(OC)c(C(=O)C2COC(=O)C2)c1", "note": "(stereo not drawn)", "IC50": 134}
{"smiles": "S=c1nc(C2CCCCC2)[nH][nH]1", "IC50": 136}
{"smiles": "CNC[C@H](CC1CCCCC1)NC[C@H](Cc1ccccc1)NCCC12CC3CC(CC(C3)C1)C2", "IC50": 19.6}
{"smiles": "CCn1cc(C(=O)O)c(=O)c2cc(F)c(N3CCN(C(=S)NC(=O)c4c(OC)cccc4OC)CC3)cc21", "IC50": 62.8}
{"smiles": "CCCCCCCCCCOC(=O)Cn1c(COc2ccccc2)[n+](C)c2ccccc21", "IC50": 64.3}
{"smiles": "CCN1CCN(C(c2cccnc2)c2cc(Cl)c3cccnc3c2O)CC1", "note": "(stereo not drawn)", "IC50": 61.9}
{"smiles": "O=[N+]([O-])c1cc(CN2CCOCC2)c2cccnc2c1O", "IC50": 64.3}
{"smiles": "O=C(Oc1c(Cl)cc(Cl)c2cccnc12)c1ccco1", "IC50": 17.3}
{"smiles": "CN(Cc1ccccc1)CC(O)COc1ccc(CNCc2ccc(Cl)s2)cc1", "note": "(stereo not drawn)", "IC50": 117}
{"smiles": "CS(=O)(=O)c1ccc([C@@H](O)[C@@H](CO)NC(=O)C(Cl)Cl)cc1", "IC50": 63.7}
{"smiles": "O=[N+]([O-])c1cc(O)c2ncccc2c1", "IC50": 15.8}
{"smiles": "Nc1cc(Cl)c2nonc2c1[N+](=O)[O-]", "IC50": 39.8}
{"smiles": "CCn1cc(C(=O)O)c(=O)c2ccc(C)nc21", "IC50": 117}
